The results in this text go back to patent US20250195503A1, “TETRACYCLIC COMPOUND AND USE THEREOF” (SHANGHAI SHIJIANG BIOTECHNOLOGY TECHNOLOGY CO., LTD., priority 2022, published 2025).

The test system of one test is Daoy cell. In words: Mitochondria membrane potential difference by TMRM in Daoy cell. Type of test: cell-based, human. The following applies: CsA −, H2O2 +. The text has this: The mitochondria permeability transition pore (mPTP) was a non-specific channel on the inner membrane of mitochondria, which could allow small molecules with molecular less than 1.5KD to pass freely, and its activity was affected by peroxides (such as H2O2), pH and calcium ions in mitochondria. […] For cells with active mitochondria permeability transition pore, adding peroxide (such as H2O2) could increase the activity of mitochondria permeability transition pore, resulting in a decrease in mitochondria membrane potential.

In test [1] the test system is Daoy cell transfected with empty virus vector without carrying shRNA. In words: Mitochondria membrane potential difference by TMRM in Daoy cell transfected with empty virus vector. Type of test: cell-based, human. The following applies: CsA −, H2O2 +.
Test [2] deals with Daoy cell transfected with virus vector carrying shRNA that could specificly induce the degradation of PPIF mRNA. In words: Mitochondria membrane potential difference by TMRM in Daoy cell transfected with virus vector carrying PPIF shRNA. To be noted: CsA −, H2O2 +. The format is cell-based, human.
For a further test, the system named is mPTP-active Daoy cell. Nature of the test: Inhibitory effect (IC50) on mPTP-active Daoy cell, Promega CellTiter-Glo kit. Type of test: cell-based. To be noted: Homo sapiens, Daoy cell transfected with empty virus vector without PPIF shRNA. For orientation: Cellular ATP, detected with luciferase, serves as a proxy for viable cell number.
The subject of a further test is mPTP-inactive Daoy cell. Nature of the test: Inhibitory effect (IC50) on mPTP-inactive Daoy cell (PPIF shRNA), Promega CellTiter-Glo kit. The format is cell-based. The following applies: Homo sapiens, Daoy cell transfected with virus vector carrying PPIF shRNA.
A further test concerns sh-DNMT1 NCI-H82 cell. Nature of the test: Inhibitory effect (IC50) on sh-DNMT1 NCI-H82 cell, Promega CellTiter-Glo kit. Type of test: cell-based. The following applies: Homo sapiens, DNMT1 knocked down NCI-H82 cell.
The next test concerns Con-NCI-H82 cell. In words: Inhibitory effect (IC50) on Con-NCI-H82 cell, Promega CellTiter-Glo kit. Type of test: cell-based. The following applies: Homo sapiens, NCI-H82 cell transfected with empty virus vector.
Another test relates to ov-NNMT NCI-H82 cell. Nature of the test: Inhibitory effect (IC50) on ov-NNMT NCI-H82 cell, Promega CellTiter-Glo kit. The format is cell-based. To be noted: Homo sapiens, NNMT protein overexpressed NCI-H82 cell.

The structures appear in SMILES notation.

Take `OO` [H2O2]: the entries for the “Relative TMRM signal intensity (%), mean value” (in the test on Daoy cell; in test [1]; in test [2]) were 82%, 79% and 95%, respectively.
For orientation: IC50 means the point on the concentration scale where inhibition reaches its midpoint. A higher IC50 goes with lower potency. As for `COc1ccc2c(c1OC)CN1CCc3cc4c(cc3C1=C2)OCO4` [compound AB31713], the figures for the IC50 in the test with mPTP-active Daoy cell, in the test on mPTP-inactive Daoy cell and with sh-DNMT1 NCI-H82 cell were 25 µM, 12.5 µM and 14.6 µM, respectively.
For `COc1ccc2c(c1OC)C(C(Cl)(Cl)Cl)N1CCc3cc4c(cc3C1=C2)OCO4` (stereo not shown) [compound AB31714], the IC50 was 26.7 µM with mPTP-active Daoy cell; 12.5 µM with mPTP-inactive Daoy cell; 2.33 µM in the test on Con-NCI-H82 cell; 7.04 µM with ov-NNMT NCI-H82 cell; 14.3 µM in the test on sh-DNMT1 NCI-H82 cell.
The matching figures for `CCCCC1c2c(ccc(OC)c2OC)C=C2c3cc4c(cc3CCN21)OCO4` (stereo not shown) [compound AB31875]: 14.6 µM, 6.25 µM, 3.27 µM, 10.1 µM and 12.3 µM.
The corresponding values for `C=CCCC1c2c(ccc(OC)c2OC)C=C2c3cc4c(cc3CCN21)OCO4` (stereo not shown) [compound AB31882] are 19.3 µM, 9.22 µM, 5.16 µM, 11.6 µM and 18.8 µM.
With `CCC1c2c(ccc(OC)c2OC)C=C2c3cc4c(cc3CCN21)OCO4` (stereo not shown) [compound AB31883], the IC50 in the test with mPTP-active Daoy cell was 5.64 µM; in the test on mPTP-inactive Daoy cell it was 2.45 µM; with Con-NCI-H82 cell, 2.18 µM; in the test on ov-NNMT NCI-H82 cell, 5.56 µM; in the test with sh-DNMT1 NCI-H82 cell, 5.98 µM.
The corresponding values for `CCCC1c2c(ccc(OC)c2OC)C=C2c3cc4c(cc3CCN21)OCO4` (stereo not shown) [compound AB31884] are 5.76 µM, 2.71 µM, 2.31 µM, 6.32 µM and 8.64 µM.
The corresponding values for `COc1ccc2c(c1OC)C(C(C)C)N1CCc3cc4c(cc3C1=C2)OCO4` (stereo not shown) [compound AB31885] are 6.43 µM, 3.17 µM, 1.12 µM, 4.13 µM and 5.99 µM.
Turning to `COc1ccc2c(c1OC)C(C)N1CCc3cc4c(cc3C1=C2)OCO4` (stereo not shown) [compound AB31886], the IC50 in the test with mPTP-active Daoy cell stood at 14.3 µM; in the test with mPTP-inactive Daoy cell, 5.74 µM; in the test on Con-NCI-H82 cell, 3.22 µM; in the test on ov-NNMT NCI-H82 cell it was 8.48 µM; with sh-DNMT1 NCI-H82 cell, 9.66 µM.
Take `C=CCC1c2c(ccc(OC)c2OC)C=C2c3cc4c(cc3CCN21)OCO4` (stereo not shown) [compound AB31891]: the IC50 in the test on mPTP-active Daoy cell was found to be 6.22 µM; in the test on mPTP-inactive Daoy cell, 3.12 µM; in the test with Con-NCI-H82 cell, 2.06 µM; with ov-NNMT NCI-H82 cell it was 6.55 µM; in the test on sh-DNMT1 NCI-H82 cell, 5.73 µM.
For `COc1ccc2c(c1OC)C(C1CCCCC1)N1CCc3cc4c(cc3C1=C2)OCO4` (stereo not shown) [compound AB31893], the values for the IC50 with mPTP-active Daoy cell and in the test on mPTP-inactive Daoy cell were 5.14 µM and 2.5 µM, respectively.
For the compound `COc1ccc2c(c1OC)C(C1CCCC1)N1CCc3cc4c(cc3C1=C2)OCO4` (stereo not shown) [compound AB31900], the IC50 with mPTP-active Daoy cell was 5.37 µM; with mPTP-inactive Daoy cell, 2.56 µM; with sh-DNMT1 NCI-H82 cell, 6.58 µM.
For the compound `COc1ccc2c(c1OC)C(C(F)(F)F)N1CCc3cc4c(cc3C1=C2)OCO4` (stereo not shown) [compound AB35403], the IC50 with mPTP-active Daoy cell came to 60.1 µM; with mPTP-inactive Daoy cell, 28.6 µM; in the test with Con-NCI-H82 cell, 6.91 µM; in the test with ov-NNMT NCI-H82 cell it was 16.8 µM; in the test on sh-DNMT1 NCI-H82 cell it was 24.2 µM.
The matching figures for `CCCCCCC1c2c(ccc(OC)c2OC)C=C2c3cc4c(cc3CCN21)OCO4` (stereo not shown) [compound AB35435]: 1.32 µM, 0.69 µM, 0.72 µM, 2.66 µM and 3.65 µM.
